This assay deals with Meloidogyne incognita. As to the kind of experiment: Test against Meloidogyne spp. (soil pot test). Type of assay: in vivo. Particulars: 672 h; 10 ppm in soil contaminated by Meloidogyne incognita; tomato (Kurihara), greenhouse 4 weeks; from root knot index; read-out: controlling effect. As for the experimental part: Test Against Meloidogyne spp. (Soil Pot Test)
Preparation of Test Agent:
1 Part of the active compound is impregnated to 99 parts of pumice to make fine granules.
A compound of the formula (I) was added to the soil contaminated by Meloidogyne incognita so that the chemical concentration would be 10 ppm and homogeneously mixed by stirring. A pot ( 1/5000 are) was filled with the soil. About 20 seeds of tomato (variety: Kurihara) were sown per pot. After cultivation in a greenhouse for 4 weeks, they were carefully pulled out not to damage the roots and the root knot index and the controlling effect were determined as follows.
1: A few knots were formed
2: Knots were formed to a medium extent
3: Knots were formed to an intense extent
4: Knots were formed to the most intense extent (corresponds to non-treatment). [formula]
Evaluation of the ability of the tested compounds to control the nematodes was done according to the values obtained for the controlling effect and with the following standards. […]
a: Controlling effect 100-71% b: Controlling effect 70-50% c: Controlling effect less than 50%

Turning to `OCc1coc(SCCC(F)=C(F)F)n1` [Compound 75, 4-hydroxymethyl-2-(3,4,4-trifluoro-3-butenylthio)oxazole], the pest or weed control at 10 ppm fell in the range of 71 to 100%. For the compound `FC(F)=C(F)CCSc1ncc(Cl)o1` [Compound 4, 5-chloro-2-(3,4,4-trifluoro-3-butenylthio)oxazole], the pest or weed control at 10 ppm lay in the range of 71 to 100%.

For `CSCc1coc(SCCC(F)=C(F)F)n1` [Compound 86, 4-methylthiomethyl-2-(3,4,4-trifluoro-3-butenylthio)oxazole], the pest or weed control at 10 ppm lay in the range of 71 to 100%.

`COCc1cnc(SCCC(F)=C(F)F)o1` [Compound 46, 5-methoxymethyl-2-(3,4,4-trifluoro-3-butenylthio)oxazole]: the pest or weed control at 10 ppm lay within 71 to 100%. Turning to `[O-][S+](CCC(F)=C(F)F)c1ncco1` (centres unmarked) [Compound 2, 2-(3,4,4-trifluoro-3-butenylsulfinyl)oxazole], the pest or weed control at 10 ppm was in the range of 71 to 100%. `FC(F)=C(F)CCSc1ncco1` [Compound 1, 2-(3,4,4-trifluoro-3-butenylthio)oxazole]: the pest or weed control at 10 ppm was in the range of 71 to 100%. In the case of `FC(F)=C(F)CCSc1nc(Cl)co1` [Compound 52, 4-chloro-2-(3,4,4-trifluoro-3-butenylthio)oxazole], the pest or weed control at 10 ppm was in the range of 71 to 100%. Consider `FC(F)=C(F)CCSc1nc(CBr)c(Br)o1` [Compound 39, 5-bromo-4-bromomethyl-2-(3,4,4-trifluoro-3-butenylthio)oxazole], for which the pest or weed control at 10 ppm was in the range of 71 to 100%.

In the case of `COCc1coc(SCCC(F)=C(F)F)n1` [Compound 78, 4-methoxymethyl-2-(3,4,4-trifluoro-3-butenylthio)oxazole], the pest or weed control at 10 ppm lay within 71 to 100%. With `O=S(=O)(CCC(F)=C(F)F)c1ncco1` [Compound 3, 2-(3,4,4-trifluoro-3-butenylsulfonyl)oxazole], the pest or weed control at 10 ppm was in the range of 71 to 100%.

On to `CS(=O)(=O)Oc1coc(SCCC(F)=C(F)F)n1` [Compound 127, 4-methylsulfonyloxy-2-(3,4,4-trifluoro-3-butenylthio)oxazole], for which the pest or weed control at 10 ppm lay within 71 to 100%.

The record behind these values is patent US20030109563A1, “Nematicidal trifluorobutenes” (priority 2000, published 2003).
